{"source": "patent EP2511272B1", "about": "“Synthetic analogues of abscisic acid with anti-inflammatory and insulin release stimulation effects on human cells” (Universita' degli Studi di Genova, priority 2011, dated 2012)", "key": {"[1]": {"system": "granulocytes", "assay": "Inhibition of ABA-induced chemotaxis (granulocyte migration, ChemoTx)", "format": "cell-based, human", "protocol": "After ON (overnight) incubation in complete DMEM/F12, granulocytes were washed in HBSS and then were resuspended at the concentration of 1x10^7 cells/ml in chemotaxis buffer (HBSS:PBS:5% albumin; 39:16:1).\nChemotaxis was carried out on 96-well plates ChemoTx system microplates (Neuro Probe, Inc., Gaithersburg, MD, U.S.A.) with a polycarbonate filter with 3 µm-diameter pores. The compound prepared according to example 1 was diluted in chemotaxis buffer at various concentrations (5 µM, 100 nM, 1 nM, 0.1 nM) and was added, either alone or together with a solution of 1 µM ABA to the bottom of the plate. The suspension of the cells (25 µl/well) was added to the filter and the plate was incubated for 90 minutes at 37 °C. The migrated cells were transferred to a white 96-well plate and were counted with 60 µl of a solution containing 0.2 % (v/v) of Nonidet P40 and 1 µM Sitox green. After a 20-minute incubation at 37 °C, the fluorescence was measured with Fluostar OPTIMA fluorometer (excitation wavelength λexc = 485 nm and emission wavelength λemis = 520 nm) and the cell number was computed by using a standard cellular curve obtained from serial diltion cellular suspension of granulocytes. The result is expressed as the \"chemotactic index\" (CI), which corresponds to the ratio of the number of cells migrated towards the chemoattractant divided by the number of cells migrated towards the substrate). A chemotactic index higher than 1 is indicative of chemoattraction of cells. The test was carried out three times in sextuplicate."}, "[2]": {"system": "human granulocytes", "assay": "Production of reactive oxygen species (ROS), H2DCFDA fluorescence", "format": "cell-based", "protocol": "Human granulocitytes, after ON incubation in complete DMEM/F12, were resuspended at 1x10^7/ml in HBSS and spiked with the fluorescent probe (10 µM), specific for ROS determination, 2',7'-dichlorodihydrofluorescein diacetate (H2DCFDA), for 30 min at 37 °C.\nThey were subsequently washed twice with HBSS and resuspended at 1x10^6 cells/ml in HBSS and then were kept at room temperature for approximately 30 minutes.\nThe cells (100 µl) were added to a 96-well plate pre-loaded with ABA 1 µM, either alone or with increasing concentrations of the compound prepared according to example 1.\nThe increase in fluorescence was measured at 10-sec intervals for 10 minutes, with Fluostar OPTIMA fluorometer (λexc: 485; λemis: 520).\n(§1) The experiment was carried out three times in triplicate.\nHuman granulocutes stimulated with 1 µM ABA become activated, and produce quite large amounts of reactive oxygen species (ROS) (Bruzzone, jbc 2007). The results were expressed as the average of the results obtained from three independent experiments, from which the background value, obtained from the control, had been subtracted. TABLE 4. Inhibition of ROS production, in human granulocytes stimulated with ABA, by compound prepared according to example 1."}, "[3]": {"system": "human granulocytes", "assay": "Inhibition of ABA-induced phagocytosis of fluorescent beads", "format": "cell-based", "protocol": "Human granulocytes, after ON incubation in complete DMEM/F12, were resuspended at 1x10^6 cells/100 µl in HBSS.\nFor the experiment, fluorescent polystyrene (carboxylate-modified polystyrene) beads were used, of 1 µm of diameter (Sigma-Aldrich) A volume of 100 µl of cellular suspension was subdivided into eppendorf, in which a 10 minutes long preincubation was carried out with 20 µM ABA, either alone, or together with increasing concentrations of compound prepared according to example 1.\nAfter the end of the preincubation, the beads were added for 5, 10 and 30 minutes. For each experimental point, 2.5 x 10^5 beads were used.\nAt the end of the incubations, the cells were collected by centrifugation (200xg for 10 seconds), were washed with 1 ml of HBSS at 0 °C and were centrifuged once again at 200xg for 10 seconds. The supernatant was discarded and the cells were resuspended in 350 µl of HBSS and added to 96-well plates of white colour (100 µl per well).\nThe increase in fluorescence was measured with Fluostar OPTIMA fluorometer (λexc: 485; λemis: 520).\nas §1\nHuman grnulocytes were preincubated for 10 minutes at 20 °C with 20 µM ABA, either alone or in the presence of compound prepared according to example 1, at various concentrations. In order to evaluate the phagocytic capability of granulocytes, fluorescent beads were added and, after 15 and 30 minutes, the fluorescence absorbed by the cells was determined as described in Materials and Methods The results were expressed as the average of the results obtained from three independent experiments, from which the background value, obtained from the control, had been subtracted (TABLE 5). TABLE 5. Inhibition of phagocitosis, in human granulocytes stimulated with ABA, by compound prepared according to example 1."}, "[4]": {"system": "human monocytes", "assay": "Inhibition of ABA-induced MCP-1 production in monocytes (ELISA)", "format": "cell-based", "conditions": "6 h", "protocol": "Monocytes, 25 x 10^6/Petri in complete RPMI, were incubated for 6 h with 100 nM ABA either alone, or in the presence of compound prepared according to example 1, at a concentration of 1 µM. At the end of the incubation, the substrate was centrifuged at 17,000xg for 5 minutes and the release of MCP-1 (monocyte chemotactic protein-1) was quantitated by means of kit MC=-1 Elisa kit (GE Healthcare), in accordance with the instructions supplied by the manufacturer.\nThe cells were lysed in 200 µl of deionized water in order to quantitate total proteins by the Bradford method, after thre preliminary generation of a reference standard curve, obtained with different concentrations of bovine serum albumin. The spectrophotometric measurements were carried out at wavelength of 595 nm.\nThe experiment was carried out three times in sextuplicate.\nThe results were expressed as the average of the results from three independent experiments, as referred to control value. […] TABLE 8. Inhibition of MCP-1 production in human monocytes by compound prepared according to example 1"}, "[5]": {"system": "Human pancreatic beta cells", "assay": "Insulin release (secretion index) by human pancreatic beta cells", "format": "cell-based", "protocol": "Human pancreatic beta cells were incubated in 5 […], or 25 mM glucose (HG), in the absence or in the presence of 100 nM ABA or of compound according to example 1 ([…]). Insulin release is expressed as the secretion index (SI) relative to insulin release in LG..\nAs in the preceding example, for the experimental procedere, reference may be made to the there cited paper, except for the specific use of compound according to example 1. TABLE 13. Effect of ABA and of compound prepared according to example 1 on insulin release (SI) by human pacreatic beta cells at 30 minutes and 120 minutes."}, "[6]": {"conditions": "LG, substance 100 nM, at 30 minutes"}, "[7]": {"conditions": "LG, substance 100 nM, at 120 minutes"}}, "note": "Where two headings read alike, the source gives them in different places."}
{"compound": "CC1=CC(=O)CC(C)(C)C1(O)/C=C/C(C)=C\\C(=O)O", "note": "(racemic) [ABA, (2Z,4E)-5-(1-hydroxy-2,6,6-trimethyl-4-oxo-2-cyclohexen-1-yl)-3-methyl-2,4-pentadienoic acid, reference compound]", "values": [{"measurement": "CI±SD (chemotactic index)", "setting": "[1]; ABA 1 µM alone", "value": "1.63±0.10"}, {"measurement": "Increase in fluorescence (delta OD)±SD", "setting": "[2]; ABA 1 µM alone", "value": "1238±8.7", "unit": "delta OD"}, {"measurement": "Increase in fluorescence ±SD (@ 15 min)", "setting": "[3]; ABA 20 µM alone, 15 min", "value": "909±47"}, {"measurement": "Increase in fluorescence ±SD (@ 30 min)", "setting": "[3]; ABA 20 µM alone, 30 min", "value": "2476±50"}, {"measurement": "MCP-1 relatively to control ± SD", "setting": "[4]; ABA 100 nM alone", "value": "2±0.2"}, {"measurement": "SI (insulin secretion index relative to LG)", "setting": "[5]; [6]", "value": "0,91"}, {"measurement": "SI (insulin secretion index relative to LG)", "setting": "[5]; [7]", "value": "1,8"}]}
{"compound": "CC(=C/C(=O)O)/C=C/C1(O)C(C)(C)CC(=O)C2OC21C", "note": "(stereo not drawn) [Example 1, 2'α,3'α-dihydro-2'α,3'α-epoxyabscisic acid]", "values": [{"measurement": "CI±SD (chemotactic index)", "setting": "[1]; ABA 1 µM + compound 0.1 nM", "value": "1.37±0.05"}, {"measurement": "CI±SD (chemotactic index)", "setting": "[1]; ABA 1 µM + compound 1 nM", "value": "1.32±0.05"}, {"measurement": "CI±SD (chemotactic index)", "setting": "[1]; ABA 1 µM + compound 100 nM", "value": "1.12±0.04"}, {"measurement": "CI±SD (chemotactic index)", "setting": "[1]; ABA 1 µM + compound 5 µM", "value": "0.78±0.03"}, {"measurement": "IC50", "setting": "[1]; Homo sapiens", "value": "~1", "unit": "nM"}, {"measurement": "inhibition at 0.0001 µM", "setting": "[1]; Homo sapiens, migration towards ABA 1 µM, compound 0.1 nM", "value": 38, "unit": "%"}, {"measurement": "inhibition at 0.001 µM", "setting": "[1]; Homo sapiens, migration towards ABA 1 µM, compound 1 nM", "value": 47, "unit": "%"}, {"measurement": "inhibition at 0.1 µM", "setting": "[1]; Homo sapiens, migration towards ABA 1 µM, compound 100 nM", "value": 80, "unit": "%"}, {"measurement": "inhibition at 5 µM", "setting": "[1]; Homo sapiens, migration towards ABA 1 µM, compound 5 µM", "value": 100, "unit": "%"}, {"measurement": "Increase in fluorescence (delta OD)±SD", "setting": "[2]; ABA 1 µM + compound 0.01 nM", "value": "1325±26.5", "unit": "delta OD"}, {"measurement": "Increase in fluorescence (delta OD)±SD", "setting": "[2]; ABA 1 µM + compound 0.5 nM", "value": "680±13.6", "unit": "delta OD"}, {"measurement": "Increase in fluorescence (delta OD)±SD", "setting": "[2]; ABA 1 µM + compound 1 nM", "value": "371±1.9", "unit": "delta OD"}, {"measurement": "Increase in fluorescence (delta OD)±SD", "setting": "[2]; ABA 1 µM + compound 1 µM", "value": "46±0.2", "unit": "delta OD"}, {"measurement": "inhibition at 10 pM", "setting": "[2]; Homo sapiens, ROS production, ABA 1 µM, compound 0.01 nM", "value": 0, "unit": "%"}, {"measurement": "inhibition at 0.0005 µM", "setting": "[2]; Homo sapiens, ROS production, ABA 1 µM, compound 0.5 nM", "value": 45, "unit": "%"}, {"measurement": "inhibition at 0.001 µM", "setting": "[2]; Homo sapiens, ROS production, ABA 1 µM, compound 1 nM", "value": 70, "unit": "%"}, {"measurement": "inhibition at 1 µM", "setting": "[2]; Homo sapiens, ROS production, ABA 1 µM, compound 1 µM", "value": 96, "unit": "%"}, {"measurement": "IC50", "setting": "[2]; Homo sapiens, inhibiting the production of ROS, ABA 1 µM", "value": "~0.5", "unit": "nM"}, {"measurement": "Increase in fluorescence ±SD (@ 15 min)", "setting": "[3]; ABA 20 µM + compound 0.5 nM, 15 min", "value": "210±2"}, {"measurement": "Increase in fluorescence ±SD (@ 30 min)", "setting": "[3]; ABA 20 µM + compound 0.5 nM, 30 min", "value": "1423±3"}, {"measurement": "Increase in fluorescence ±SD (@ 15 min)", "setting": "[3]; ABA 20 µM + compound 10 nM, 15 min", "value": "148±2"}, {"measurement": "Increase in fluorescence ±SD (@ 30 min)", "setting": "[3]; ABA 20 µM + compound 10 nM, 30 min", "value": "515±10"}, {"measurement": "Increase in fluorescence ±SD (@ 15 min)", "setting": "[3]; ABA 20 µM + compound 1 µM, 15 min", "value": 17}, {"measurement": "Increase in fluorescence ±SD (@ 30 min)", "setting": "[3]; ABA 20 µM + compound 1 µM, 30 min", "value": 0}, {"measurement": "inhibition at 0.0005 µM", "setting": "[3]; Homo sapiens, 0.25 h, ABA 20 µM + compound 0.5 nM, 15 min, read-out: Inhibition % (@ 15 min)", "value": 77, "unit": "%"}, {"measurement": "inhibition at 0.01 µM", "setting": "[3]; Homo sapiens, 0.25 h, ABA 20 µM + compound 10 nM, 15 min, read-out: Inhibition % (@ 15 min)", "value": 84, "unit": "%"}, {"measurement": "inhibition at 1 µM", "setting": "[3]; Homo sapiens, 0.25 h, ABA 20 µM + compound 1 µM, 15 min, read-out: Inhibition % (@ 15 min)", "value": 98, "unit": "%"}, {"measurement": "inhibition at 0.0005 µM", "setting": "[3]; Homo sapiens, 0.5 h, ABA 20 µM + compound 0.5 nM, 30 min, read-out: Inhibition % (@ 30 min)", "value": 43, "unit": "%"}, {"measurement": "inhibition at 0.01 µM", "setting": "[3]; Homo sapiens, 0.5 h, ABA 20 µM + compound 10 nM, 30 min, read-out: Inhibition % (@ 30 min)", "value": 80, "unit": "%"}, {"measurement": "inhibition at 1 µM", "setting": "[3]; Homo sapiens, 0.5 h, ABA 20 µM + compound 1 µM, 30 min, read-out: Inhibition % (@ 30 min)", "value": 100, "unit": "%"}, {"measurement": "IC50", "setting": "[3]; Homo sapiens, phagocytosis induced by 20 µM ABA", "value": "~0.5", "unit": "nM"}, {"measurement": "MCP-1 relatively to control ± SD", "setting": "[4]; ABA 100 nM + compound 1 µM", "value": "0.8±0.2"}, {"measurement": "inhibition at 1 µM", "setting": "[4]; Homo sapiens, Monocyte, ABA 100 nM + compound 1 µM", "value": 100, "unit": "%"}, {"measurement": "SI (insulin secretion index relative to LG)", "setting": "[5]; HG, ABA (100 nM) + compound (100 nM) together, time not printed in the row", "value": "3,8"}, {"measurement": "SI (insulin secretion index relative to LG)", "setting": "[5]; LG, ABA (100 nM) + compound (100 nM) together, time not printed in the row", "value": "0,72"}, {"measurement": "SI (insulin secretion index relative to LG)", "setting": "[5]; [6]", "value": "1,8"}, {"measurement": "SI (insulin secretion index relative to LG)", "setting": "[5]; [7]", "value": "2,2"}]}
